Measured values: PMC7237762, “Total Synthesis and Biological Evaluation of Kakeromamide A and Its Analogues” (Frontiers in Chemistry, 2020)

Experiments:
neural stem cells (NSCs) [1] = assay: NSC differentiation assay, astrocytic differentiation (GFAP immunostaining); type: cell-based; details: 2.5, 5 and 10 μM; 72 hours in differentiation medium; anti-GFAP immunostaining, Hoechst 33342 nuclei; n = 3
Protocol: (§1) Next, kakeromamide A or its respective derivative was exposed at three concentrations (2.5, 5, and 10 μM) during differentiation of neural stem cells (NSCs). The effects of kakeromamide A and its analogs on the neural differentiation into neurons or astrocytes were evaluated by using NeuO (Er et al., [2015]) a fluorescent probe which could selectively stain neurons, or immunostaining of an astrocyte marker GFAP (glial fibrillary acidic protein), respectively. The nuclei were stained by using Hoechst 33342 followed by the microscopic analysis. Their activities were determined by calculating a ratio NeuO or GFAP positive cells to whole cells and comparing with that of the control. […] Furthermore, the astrocytic or neuronal differentiation were promoted or inhibited, respectively, by treatment with four analogs of compound 1.
(§2) V. Procedures for Biological Tests:
(§3) Induction of neural stem cells in vitro: Neural stem cells (NSCs) were obtained following the procedure (Iwata, et al., 2016; Nakayama, et al., 2006) with modification. Embryoid bodies (EBs) were induced by hanging drop method for 72 hours using 7,500 cells per 20 µL of ESCs culturing medium without LIF. Then the EBs were cultured in non-adhesive bacterial dishes in Neuron Culture Medium (Sumitomo Bakelite, Tokyo, Japan) supplemented with 20 ng/mL rhEGF (R&D Systems, Minneapolis, MN, USA) and 20 ng/mL rhFGF-2 (R&D Systems). […]

astrocytes = assay: Cell cytotoxicity toward astrocytes (Hoechst 33342 staining); type: cell-based; details: 2.5, 5 and 10 μM, n = 3
Excerpt: (§4) Bioactive compounds modulating proliferation and differentiation of neural stem cells are required as chemical probes to study about mechanism of neural development or lead compounds for regenerative medicine. In order to evaluate neural differentiation-modulating activities of kakeromamide A and its analogs, we elected to perform the biological tests using the same procedure that we reported in the isolation paper (Nakamura et al., [2018]). Neural stem cells were obtained following the procedure (Nakayama and Inoue, [2006]; Iwata et al., [2016]) with modification. 2.5, 5, and 10 μM of kakeromamide A or its respective derivative was added to astrocytes or neurons. The cell cytotoxicity of kakeromamide A and its analogs toward astrocytes or neurons was carried out using Hoechst 33342 staining (Figure 7).
(§5) Figure 7 Cytotoxicity of Kakeromamide A and Its Analogs. (A) Percentages of cell numbers calculated by Hoechst 33342 positive cells, compared to that of control, in evaluating effects of kakeromamide A and its analogs for astrocytes (n = 3, means ± S.D., *p < 0.05). (B) Percentages of cell numbers calculated by Hoechst 33342 positive cells, compared to that of control, in evaluating effects of kakeromamide A and its analogs for neurons (n = 3, means ± S.D., *p < 0.05).

neurons = assay: Cell cytotoxicity toward neurons (Hoechst 33342 staining); type: cell-based; details: 2.5, 5 and 10 μM, n = 3
Excerpt: as §4, §5

Hela cells = details: preliminary biological tests of the isolated natural product; ref Nakamura et al., 2018; read-out: cytotoxicity IC50 against Hela cells; cited from earlier work
Excerpt: (§6) Marine cyanobacteria have been playing a pivotal role in producing structurally diversified and biologically intriguing peptides (Luesch et al., [2001]; Guzman-Martinez et al., [2007]; Zainuddin et al., [2007]). In 2018, we reported the isolation of a novel cyclopeptide, kakeromamide A (Figure 1), from the marine cyanobacterium Moorea bouillonii collected near Japan (Nakamura et al., [2018]). […] To the best of our knowledge, this is the first example of marine cyclopeptide t ...

neural stem cells (NSCs) [2] = details: isolated natural product; ref Nakamura et al., 2018; cited from earlier work
Excerpt: as §6

neural stem cells (NSCs) [3] = assay: NSC differentiation assay, neuronal differentiation (NeuO staining); type: cell-based; details: 2.5, 5 and 10 μM, 72 hours in differentiation medium, Hoechst 33342 nuclei, n = 3
Protocol: as §1, §2, §3

Kakeromamide A
astrocytic differentiation of NSCs (ratio of GFAP positive cells to whole cells vs control) (neural stem cells (NSCs) [1]): promoting differentiation of NSCs into astrocytes
cytotoxicity toward astrocytes (cell number by Hoechst 33342 positive cells vs control) (astrocytes): No significant cytotoxicity
cytotoxicity toward neurons (cell number by Hoechst 33342 positive cells vs control) (neurons): No significant cytotoxicity
IC50 (Hela cells): 10 µM
concentration inducing neural stem cells differentiation into astrocytes (neural stem cells (NSCs) [2]): 2.5 to 10 µM
neuronal differentiation of NSCs (ratio of NeuO positive cells to whole cells vs control) (neural stem cells (NSCs) [3]): inhibiting neuronal differentiation of NSCs
